# According to US20220402862A1 (Intellia Therapeutics, Inc., priority 2019, published 2022):
# Several values for one entry are separate records, joined by “and”; a condition that tells them apart may be missing. Equal values may be shown once.
# What was measured:
# [1] = pKa measurement of unformulated amine lipid (fluorescence, method of Jayaraman et al.); assay type: physicochemical; settings: 100 μM in 0.1 M phosphate buffer, pH 2.0-12.0
# Method: The pKa of each amine lipid was determined according to the method in Jayaraman, et al. (Angewandte Chemie, 2012) with the following adaptations. […] Lipid was diluted to 100 μM in 0.1 M phosphate buffer (Boston Bioproducts) where the pH ranged from 2.0-12.0. Fluorescence intensity was measured using excitation and emission wavelengths of 321 nm and 448 nm.
# Transthyretin (TTR) = test: Serum TTR ELISA in mice after LNP dosing; assay type: in vivo, CD-1 female mice
# Summary of the method: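 Serum mouse TTR was quantified by ELISA at 10,000-fold dilution for 0.1 mg/kg and 10,000/2,500-fold for 0.3 mg/kg. Samples came from female CD-1 mice (6–10 weeks) killed 6 or 7 days after a single intravenous LNP dose, usually 0.1 mg/kg.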
# mouse TTR gene = test: In vivo editing in mouse liver, sgRNA targeting TTR (G282 or G502), % indel by NGS; parameters: species or system CD-1 female mice
# Method: CD-1 female mice ranging from 6-10 weeks of age were used in each study. Animals were weighed and grouped according to body weight for preparing dosing solutions based on group average weight. LNPs were dosed via the lateral tail vein in a volume of 0.2 mL per animal (approximately 10 mL per kilogram body weight). The animals were periodically observed for adverse effects for at least 24 hours post dose. For studies measuring in vivo editing in liver, CD-1 female mice were dosed at 0.1 mg/kg unless otherwise noted. Animals were euthanized at 6 or 7 days by ex sanguination via cardiac puncture under isoflurane anesthesia. Liver tissue was collected from each animal for DNA extraction and analysis. Blood was collected into serum separator tubes or into tubes containing buffered sodium citrate for plasma as described herein. Cohorts of mice were measured for editing by Next-Generation Sequencing (NGS).
# In brief, to quantitatively determine the efficiency of editing at the target location in the genome, genomic DNA was isolated and deep sequencing was utilized to identify the presence of insertions and deletions introduced by gene editing.
# PCR primers were designed around the target site (e.g., within B2M), and the genomic area of interest was amplified. Additional PCR was performed according to the manufacturer's protocols (Illumina) to add the necessary chemistry for sequencing. The amplicons were sequenced on an Illumina MiSeq instrument. The reads were aligned to the mouse or rat reference genome (e.g., GRCm38) after eliminating those having low quality scores. The resulting files containing the reads were mapped to the reference genome (BAM files), where reads that overlapped the target region of interest were selected and the number of wild type reads versus the number of reads which contain an insertion, substitution, or deletion was calculated.
# The editing percentage (e.g., the “indel efficiency” or “percent indels”) was defined as the total number of sequence reads with insertions or deletions over the total number of sequence reads, including wild type.
# We assessed in vivo editing efficiency for materials delivered with formulations including various amine lipid compounds. Editing was measured using either G282 (SEQ ID No: 1) which targets the mouse TTR gene or G650 (SEQ ID No. 2) which targets the mouse B2M gene. Lipids described above were assessed for efficacy through in vivo editing experiments. LNPs were formulated at a 1:1 or 1:1.3 w/w ratio of sgRNA to Cas9 mRNA, and at an N/P ratio of about 6. Molar concentrations of lipids in the lipid component of the LNPs are used at mol % amine lipid/DSPC/cholesterol/PEG-2k-DMG of 50/9/38/3. The final LNPs were characterized to determine the encapsulation efficiency, polydispersity index, and average particle size according to the analytical methods provided above. Analysis of average particle size, polydispersity (PDI), total RNA content and encapsulation efficiency of RNA are shown in Table 2.
# To assess whether the editing was dose responsive, experiments were performed in vivo at various LNP dose levels. Cas9 mRNA of Example 120 was formulated as LNPs with an sgRNA targeting TTR (G282, SEQ ID NO: 1; or G502, SEQ ID NO: 4).
# We assessed in vivo delivery by measuring editing efficiency for materials delivered with formulations that included various amine lipid compounds. Cas9 mRNA (SEQ ID NO: 6) was formulated as LNPs with an sgRNA targetting the TTR mouse gene (SEQ ID NO: 4). LNPs were formulated at a 1:2 w/w ratio of sgRNA to Cas9 mRNA, and at an N/P ratio of about 6. Molar concentrations of lipids in the lipid component of the LNPs are used at mol % amine lipid/DSPC/cholesterol/PEG-2k-DMG of 50/9/38/3. The final LNPs compositions were characterized and analyzed as described in Example 120. Analysis of average particle size, polydispersity (PDI), total RNA content and encapsulation efficiency of RNA are shown in Table 6.
# [2] = Dynamic light scattering of LNPs: Z-average diameter, number average diameter, PDI; assay type: physicochemical; settings: LNP
# Summary of the method: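 Values reported are the Z-average (intensity-weighted mean size), the number-average diameter and the PDI (spread of sizes, 0 = fully uniform). All three came from dynamic light scattering of LNP preparations after dilution in PBS.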
# [3] = RNA encapsulation efficiency of LNPs (Ribogreen fluorescence assay); assay type: physicochemical; settings: LNP; for Encapsulation (%): sg:mRNA 1:1, N/P about 6, amine lipid/DSPC/cholesterol/PEG-2k-DMG 50/9/38/3, Table 2, Experiments 2-20
# Summary of the method: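 Encapsulation efficiency is (Total RNA − Free RNA)/Total RNA. Free RNA was quantified by RiboGreen fluorescence (488/525 nm, ~10 min, RT, dark) in plain TE buffer; total RNA was quantified after LNP lysis with 0.2% Triton X-100, both against RNA standard curves.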
# [4] = sg:mRNA 1:1, N/P about 6, 50/9/38/3, Table 2, Experiments 2-20
# [5] = sg:mRNA 1:2, N/P 6.0, 50/9/38/3, Table 4, Experiment 105
# [6] = mouse, LNP i.v. 0.1 mg/kg, guide G282, Experiments 101-103
# [7] = mouse, LNP i.v. 0.1 mg/kg, guide G282, Experiments 101-103, relative to TSS control
# [8] = mouse, LNP i.v. 0.3 mg/kg, guide G282, Experiments 101-103
# [9] = mouse, LNP i.v. 0.3 mg/kg, guide G282, Experiments 101-103, relative to TSS control
# [10] = LNP i.v. 0.1 mg/kg, guide G282, Experiments 101-103
# [11] = LNP i.v. 0.3 mg/kg, guide G282, Experiments 101-103
# [12] = sg:mRNA 1:1, N/P 6.0, 50/9/38/3, Table 4, Experiments 101-104
# [13] = mouse serum TTR relative to TSS control, guide G502, i.v. 0.1 mg/kg
# [14] = mouse serum, guide G502, i.v. 0.1 mg/kg
# [15] = guide G502, i.v. 0.1 mg/kg, sgRNA:Cas9 mRNA 1:2 w/w, experiments 106, 107
# [16] = sg:mRNA 1:2, N/P about 6, 50/9/38/3, Table 6, Experiments 106-107
# [17] = sg:mRNA 1:2, N/P about 6, 50/9/38/3, TTR sgRNA (SEQ ID NO: 4), Table 6, Experiments 106-107
SMILES,pKa [1],"Number mean (nm) [2, 4]","Z-avg (nm) [2, 4]",Encapsulation (%) [3],Serum TTR (Transthyretin (TTR); [6]),Serum TTR % TSS (Transthyretin (TTR); [7]),Serum TTR (Transthyretin (TTR); [8]),Serum TTR % TSS (Transthyretin (TTR); [9]),Editing Mean % Indel (mouse TTR gene; [10]),Editing Mean % Indel (mouse TTR gene; [11]),"Number mean (nm) [2, 12]","PDI [2, 12]","Z-avg (nm) [2, 12]",Serum TTR % TSS (Transthyretin (TTR); [13]),Serum TTR (Transthyretin (TTR); [14]),Editing Mean % Indel (mouse TTR gene; [15]),"Number mean (nm) [2, 16]","PDI [2, 16]","Z-avg (nm) [2, 16]","% E [3, 17]",also measured
"CCCCCCCCOC(CCC(=O)OCC(COC(=O)CCCCCCCCCCC(=O)OCCCCCCC)COC(=O)OCCCN(CC)CC)OCCCCCCCC (stereo not shown) [Compound 61, 1-(3-((4,4-bis(octyloxy)butanoyl)oxy)-2-((((3-(diethylamino)propoxy)carbonyl)oxy)methyl)propyl) 12-heptyl dodecanedioate]",6.29,72 nm,87.26 nm,97%,,,,,,,,,,,,,,,,,"Serum TTR (Transthyretin (TTR); mouse, LNP i.v. 0.03 mg/kg, guide G502, Experiment 105): 711 µg/mL; Serum TTR % TSS (Transthyretin (TTR); mouse, LNP i.v. 0.03 mg/kg, guide G502, Experiment 105, relative to TSS control): 65%; Serum TTR (Transthyretin (TTR); mouse, LNP i.v. 0.1 mg/kg, guide G502, Experiment 105): 472 µg/mL; Serum TTR % TSS (Transthyretin (TTR); mouse, LNP i.v. 0.1 mg/kg, guide G502, Experiment 105, relative to TSS control): 43%; Editing Mean % Indel (mouse TTR gene; LNP i.v. 0.03 mg/kg, guide G502, Experiment 105): 7.78%; Editing Mean % Indel (mouse TTR gene; LNP i.v. 0.1 mg/kg, guide G502, Experiment 105): 36.06%; PDI [2, 4]: 0.018; Number mean (nm) [2, 5]: 79.73 nm; PDI [2, 5]: 0.033; Z-avg (nm) [2, 5]: 99.25 nm; % E [3, 5]: 98%"
"CCCCC/C=C\C/C=C\CCCCCCCC(=O)OCC(COC(=O)CCC(OCCCCCCCC)OCCCCCCCC)COC(=O)C1CCN(C)CC1 (stereo not shown) [Compound 31, 3-((4,4-bis(octyloxy)butanoyl)oxy)-2-((((9Z,12Z)-octadeca-9,12-dienoyl)oxy)methyl)propyl 1-methylpiperidine-4-carboxylate]",7.31,58.67 nm and 59.35 nm,75.11 nm and 73.65 nm,98% and 99%,976 µg/mL,71%,226 µg/mL,17%,13.5%,50.7%,61 nm,0.04,76 nm,,,,,,,,"% E [3, 12]: 99%"
"CCCCCCCCCCCCCCCCCC(=O)OCC(COC(=O)CCC(OCCCCCCCC)OCCCCCCCC)COC(=O)OCCCN(CC)CC (stereo not shown) [Compound 114, 3-((4,4-bis(octyloxy)butanoyl)oxy)-2-((((3-(diethylamino)propoxy)carbonyl)oxy)methyl)propyl stearate]",6.13,,,,,,,,,,,,,88.4%,978.01 µg/mL,18.04%,72 nm,0.02,87 nm,96%,
"CCCCCCCC/C=C\CCCCCCCC(=O)OCC(COC(=O)CCC(OCCCCCCCC)OCCCCCCCC)COC(=O)OCCCN(CC)CC (stereo not shown) [Compound 115, 3-((4,4-bis(octyloxy)butanoyl)oxy)-2-((((3-(diethylamino)propoxy)carbonyl)oxy)methyl)propyl oleate]",5.96,,,,,,,,,,,,,73.8%,816.3 µg/mL,19.68%,76 nm,0.01,93 nm,97%,
"CCCCC/C=C\C/C=C\CCCCCCCC(=O)OCC(COC(=O)CCCN(CC)CC)COC(=O)CCC(OCCCCCCCC)OCCCCCCCC (stereo not shown) [Compound 29, 3-((4,4-bis(octyloxy)butanoyl)oxy)-2-(((4-(diethylamino)butanoyl)oxy)methyl)propyl (9Z,12Z)-octadeca-9,12-dienoate]",6.84,66.92 nm and 64.63 nm,82.41 nm and 78.63 nm,98%,663 µg/mL,48%,205 µg/mL,15%,31.4%,54.8%,70 nm,0.003,84 nm,,,,,,,,"% E [3, 12]: 99%"
"CCCCC/C=C\C/C=C\CCCCCCCC(=O)OCC(COC(=O)CCC(OCCCCCCCC)OCCCCCCCC)COC(=O)OCCCN1CCCCC1 (stereo not shown) [Compound 102, 3-((4,4-bis(octyloxy)butanoyl)oxy)-2-((((3-(piperidin-1-yl)propoxy)carbonyl)oxy)methyl)propyl (9Z,12Z)-octadeca-9,12-dienoate]",5.7,,,,,,,,,,,,,62.3%,728.1 µg/mL,19.6%,57 nm,0.02,71 nm,98%,
